What all share (type): cell-based, human
Assay [1] concerns eGFP-negative (silenced) AAVS1/TetO7 cells. As to the kind of experiment: 5-Aza treatment of eGFP-silenced AAVS1/TetO7 cells (flow cytometry). The conditions noted are these: 7 days. The protocol: In order to understand if DNA methylation was necessary to maintain the repressive state induced by tetR:D3A, the eGFP-cells from the doxy-conditions in FIG. 2D were treated with either 5-Aza-2′-deoxycytidine (5-Aza) or vehicle (i.e. Dimethyl Sulfoxide, DMSO) and then analysed by flow cytometry to measure eGFP expression. 5-Aza is a cytosine analogue that after becoming incorporated into DNA is recognised by DNA methyltransferase as a substrate, establishing a covalent bond that, contrary to cytosine, is not resolved, thus blocking DNMT activity (Issa, J. P. et al. (2005) Nat. Rev. Drug Discov. Suppl. S6-7).
To test activity of the ATRs, the reporter cell lines were transduced with the ATR-expressing Bid.LV at a MOI of 10, or transfected with plasmids or in vitro transcribed mRNAs expressing the ATRs (4D-Nucleofector™ System; Lonza) according to the manufacturer's instruction for K-562, U937 and NIH/3T3, or using the pulse program EW-113 and the SF solution for B-lymphoblastoid cells. […] The AZA-containing media was replaced every day, and the cells were analysed by flow cytometry at day 4 and 7 after treatment. […] The IFN-γ-containing media was replaced every day, and the cells were analysed by flow cytometry at day 2 and 4 after treatment. […] Two weeks after plating, colonies were counted and identified according to morphological criteria and analysed by flow cytometry.

Assay [2] relates to B2M gene promoter region, HEK-293T cells. In words: B2M silencing in HEK-293T cells (flow cytometry). The note with it: day 7 upon AZA treatment. The text has this: In order to assess if the results obtained with the eGFP reporter system could also be translated to an endogenous gene embedded in its natural epigenetic context, we generated custom-made TALEs targeting the promoter region of the B2-Microglobulin (B2M) gene (the amino acid sequences of these TALEs and the nucleotide sequences of their corresponding binding sites are listed in Table 3), and fused these TALEs to the KRAB, DNMT3A and DNMT3L effector domains (for a schematic of the system refer to FIG. 13A). The spacer length between the first and the second, or between the second and the third TALE is 1 or 20 bp, respectively. We then co-transfected HEK-293T cells with the plasmids encoding for these novel ATRs and analysed the cells by flow cytometry for B2M expression.
Remarkably, up to 80% of the cells treated with all the ATRs permanently lost B2M surface expression. In parallel experiments, we sorted the B2M-negative and the B2M-positive cells, and analysed them for surface expression of MHC-I molecules, which require B2M to be presented on the plasma membrane. […] Then we assessed if the three effector domains were capable of inducing permanent epigenetic silencing also when targeted to the B2M gene via the RNA-guided CRISPR/Cas9 system. […]
We then assessed if these findings also held true with ATRs based on custom-made DNA binding domains. […]

The test system of another assay is B2M gene, HEK-293T cells. In words: B2M, OAS1 and B2M locus gene expression in HEK-293T cells (RT-qPCR). An excerpt:
Remarkably, up to 80% of the cells treated with all the ATRs permanently lost B2M surface expression. In parallel experiments, we sorted the B2M-negative and the B2M-positive cells, and analysed them for surface expression of MHC-I molecules, which require B2M to be presented on the plasma membrane. […] Then we assessed if the three effector domains were capable of inducing permanent epigenetic silencing also when targeted to the B2M gene via the RNA-guided CRISPR/Cas9 system. To this aim, we fused in frame to a catalytically dead Cas9 (D10A+H840A; dCas9; amino acid sequence listed in Table 4) the KRAB, the DNMT3A or the DNMT3L effector domains (FIG. 13E; top drawings), and designed 11 guide RNAs (gRNAs; nucleotide sequences listed in Table 4) targeting the promoter region of the B2M gene (FIG. 13E; bottom schematic, arrows indicate the location of the CRISPR/dCas9 target sites). […] We then assessed if B2M silencing was resistant to IFN-γ treatment, a potent inducer of B2M expression (Vraetz, T. et al. (1999) Nephrol. Dial. Transplant. 14:2137-43; Gobin, S. J. et al. (2003) Blood 101:3058-64). […]
In order to assess if silencing induced by our ATRs was associated with the deposition of repressive epigenetic marks on the targeted gene, we analysed the epigenetic state of the B2M gene in wild-type and silenced cells. […]
(In general: Quantitative PCR measures a nucleic acid by following its amplification.)

This note sets out measurements from patent US12152240B2, “Permanent epigenetic gene silencing” (Ospedale San Raffaele S.R.L., priority 2014, dated 2024).

Where only a bound is given, the exact number is not on record here.

Take `Nc1ncn([C@H]2C[C@H](O)[C@@H](CO)O2)c(=O)n1` [5-Aza, 5-Aza-2′-deoxycytidine]: the “eGFP expression after 5-Aza treatment” value is “full reactivation of eGFP expression” in assay [1] (eGFP- cells silenced with tetR:D3A, 1 μM) and “completely reactivated eGFP expression” in assay [1] (eGFP-negative sorted cells from tetR:K/tetR:D3A conditions). In addition, in assay [2], the “B2M expression after AZA treatment of previously silenced cells” value is “re-expression of the B2M gene”.

For the compound “IFN-γ: a potent inducer of B2M expression”, in the assay with B2M gene, HEK-293T cells (500 U/mL IFN-γ, wild-type or sorted B2M-negative cells), the “B2M expression upon IFN-γ treatment (transcriptional and protein level)” value is “significantly upregulated B2M expression”. In addition, the “upregulation of OAS1 gene expression” value with B2M gene, HEK-293T cells (IFN-γ treatment, all cell types tested (wild-type and B2M-negative)) is given as over 100 fold.
